According to the supplement of paper PMC10307832:

Legend:
Test in all cases: relative viability (nuclei count vs DMSO), 5 days (fraction); higher = more cells survive
[1] = compound: CN1C=C(C2=CC=CC=C21)/C=C\3/C4=C(C=CC=N4)NC3=O + NC(=O)Nc1cc(-c2cccc(F)c2)sc1C(=O)N[C@H]1CCCNC1 [AZD7762] (partner 0.2 µM)
In short: (§1)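 For relative viability, nuclei counts in treated wells were divided by those in vehicle wells. Lung cancer cell lines had been pin-tool dosed in 1536-well plates the day after seeding and cultured for 5 days, then fixed and stained in one step (final 0.05% Triton X-100, 1% formaldehyde, 1 ug/ml Hoechst) and imaged at 4×. Doses were one drug alone or a fixed anchor-drug dose plus five library-drug doses (not always all listed) in √10 steps, and values are duplicate-plate medians.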

[2] = compound: CN1C=C(C2=CC=CC=C21)/C=C\3/C4=C(C=CC=N4)NC3=O + CCNC(=O)c1noc(-c2cc(C(C)C)c(O)cc2O)c1-c1ccc(CN2CCOCC2)cc1 [Luminespib] (partner 0.01 µM)
In short: as §1

Trametinib + Navitoclax = compound: CC(=O)Nc1cccc(-n2c(=O)n(C3CC3)c(=O)c3c(Nc4ccc(I)cc4F)n(C)c(=O)c(C)c32)c1 [Trametinib] + CC1(C)CCC(c2ccc(Cl)cc2)=C(CN2CCN(c3ccc(C(=O)NS(=O)(=O)c4ccc(N[C@H](CCN5CCOCC5)CSc5ccccc5)c(S(=O)(=O)C(F)(F)F)c4)cc3)CC2)C1 [Navitoclax] (partner 0.5 µM)
In short: as §1

Trametinib + Tozasertib = compound: CC(=O)Nc1cccc(-n2c(=O)n(C3CC3)c(=O)c3c(Nc4ccc(I)cc4F)n(C)c(=O)c(C)c32)c1 [Trametinib] + Cc1cc(Nc2cc(N3CCN(C)CC3)nc(Sc3ccc(NC(=O)C4CC4)cc3)n2)n[nH]1 [Tozasertib] (partner 0.1 µM)
In short: as §1

| Cell Line | relative viability ([1]; first compound 0.02 µM) | relative viability ([1]; first compound 0.06325 µM) | relative viability ([1]; first compound 0.6325 µM) | relative viability ([1]; first compound 2 µM) | relative viability ([2]; first compound 0.02 µM) | relative viability ([2]; first compound 0.06325 µM) | relative viability ([2]; first compound 0.6325 µM) | relative viability ([2]; first compound 2 µM) | relative viability (Trametinib + Navitoclax; first compound 0.0025 µM) | relative viability (Trametinib + Navitoclax; first compound 0.007906 µM) | relative viability (Trametinib + Navitoclax; first compound 0.025 µM) | relative viability (Trametinib + Navitoclax; first compound 0.07906 µM) | relative viability (Trametinib + Navitoclax; first compound 0.25 µM) | relative viability (Trametinib + Tozasertib; first compound 0.0025 µM) | relative viability (Trametinib + Tozasertib; first compound 0.007906 µM) | relative viability (Trametinib + Tozasertib; first compound 0.025 µM) | relative viability (Trametinib + Tozasertib; first compound 0.07906 µM) | relative viability (Trametinib + Tozasertib; first compound 0.25 µM) | relative viability ([2]; first compound 0.2 µM) | relative viability ([1]; first compound 0.2 µM) |
| --- | --- | --- | --- | --- | --- | --- | --- | --- | --- | --- | --- | --- | --- | --- | --- | --- | --- | --- | --- | --- |
| HCC-827 | 0.202 | 0.187 | 0.246 | 0.215 | 0.589 | 0.52 | 0.59 | 0.756 | 1.06 | 0.971 | 1.03 | 0.946 | 0.676 | 0.406 | 0.401 | 0.31 | 0.293 | 0.307 |  |  |
| HOP-62 | 0.569 | 0.559 | 0.919 | 0.774 | 0.783 | 0.986 | 0.946 | 0.957 | 1.05 | 1.03 | 0.741 | 0.617 | 0.198 | 0.419 | 0.367 | 0.374 | 0.232 | 0.203 | 0.802 |  |
| IA-LM |  |  |  |  |  |  |  |  | 0.584 | 0.383 | 0.179 | 0.1 | 0.0292 |  |  |  |  |  |  |  |
| LCLC-103H | 0.864 | 0.758 | 0.741 | 0.786 | 0.933 | 0.809 | 1.07 | 1.17 |  |  |  |  |  | 0.495 | 0.451 | 0.417 | 0.406 | 0.35 | 0.934 | 0.73 |
| NCI-H358 | 0.531 | 0.494 | 0.488 | 0.548 | 0.397 | 0.377 | 0.309 | 0.407 |  |  |  |  |  | 0.112 | 0.107 | 0.0799 | 0.0885 | 0.0721 | 0.403 | 0.338 |
| NCI-H520 |  |  |  |  | 0.204 | 0.24 | 0.211 | 0.229 | 1.11 | 1.15 | 1.04 | 1.01 | 0.77 | 0.388 | 0.46 | 0.473 | 0.469 | 0.362 | 0.217 |  |
| NCI-H522 | 0.686 | 0.784 | 1.1 | 0.882 | 1.32 | 0.937 | 1.18 | 1.12 |  |  |  |  |  | 0.583 | 0.529 | 0.455 | 0.526 | 0.446 | 1.02 | 0.76 |
| NCI-H650 | 1.05 | 0.939 | 1.2 | 0.965 | 0.573 | 0.775 | 0.757 | 0.889 |  |  |  |  |  | 0.733 | 0.774 | 0.621 | 0.569 | 0.329 |  |  |
| NCI-H661 |  |  |  |  | 1.06 | 0.875 | 0.973 | 0.917 |  |  |  |  |  | 0.365 | 0.378 | 0.432 | 0.389 | 0.404 | 0.946 |  |
| NCI-H1299 |  |  |  |  |  |  |  |  | 1.04 | 1.01 | 0.896 | 0.887 | 0.78 |  |  |  |  |  |  |  |
| NCI-H1563 |  |  |  |  | 0.506 | 0.537 | 0.483 | 0.464 |  |  |  |  |  |  |  |  |  |  | 0.541 |  |
| NCI-H1623 |  |  |  |  | 0.422 | 0.473 | 0.446 | 0.289 |  |  |  |  |  | 0.355 | 0.364 | 0.299 | 0.256 | 0.314 | 0.428 |  |
| NCI-H1648 | 0.705 | 0.502 | 0.522 | 0.816 |  |  |  |  |  |  |  |  |  |  | 0.611 | 0.515 | 0.4 | 0.352 |  | 0.673 |
| NCI-H1650 |  |  |  |  | 0.19 | 0.183 | 0.203 | 0.207 | 0.94 | 0.857 | 0.816 | 0.473 | 0.35 | 0.422 | 0.434 | 0.397 | 0.374 | 0.23 | 0.195 |  |
| NCI-H1703 | 0.107 | 0.138 | 0.112 | 0.14 |  |  |  |  | 1.15 | 1.15 | 1.06 | 0.972 | 0.987 |  |  |  |  |  |  | 0.118 |
| NCI-H1792 | 0.943 | 0.702 | 0.518 | 0.693 | 0.447 | 0.447 | 0.413 | 0.643 | 0.646 | 0.596 | 0.417 | 0.392 | 0.332 |  |  |  |  |  |  | 0.376 |
| NCI-H2009 |  |  |  |  | 0.997 | 1.03 | 1.02 | 1.09 | 0.986 | 0.527 | 0.537 | 0.531 | 0.403 | 0.689 | 0.489 | 0.378 | 0.302 | 0.244 | 1.05 |  |
| NCI-H2023 |  |  |  |  | 0.899 | 0.602 | 0.914 | 0.527 | 0.864 | 0.825 | 0.877 | 0.549 | 0.33 | 0.232 | 0.262 | 0.26 | 0.232 | 0.199 | 0.763 |  |
| NCI-H2228 |  |  |  |  | 0.214 | 0.0886 |  | 0.132 | 0.782 | 0.803 | 0.706 | 0.626 | 0.548 | 0.239 | 0.209 | 0.207 | 0.211 | 0.132 |  |  |
| NCI-H2342 | 0.434 | 0.459 | 0.42 | 0.406 | 0.685 | 0.743 | 0.757 | 0.669 |  |  |  |  |  | 0.488 | 0.435 |  | 0.516 | 0.492 | 0.6 | 0.393 |
| SK-LU-1 |  |  |  |  | 0.201 | 0.185 | 0.184 | 0.2 | 0.971 | 0.929 | 0.65 | 0.337 | 0.296 | 0.301 | 0.309 | 0.286 | 0.264 | 0.181 | 0.191 |  |
| SK-MES-1 |  |  |  |  | 0.777 | 0.557 | 0.684 | 0.699 | 1.3 | 1.25 | 0.943 | 0.624 | 0.357 | 0.955 | 0.921 | 0.745 | 0.466 | 0.361 | 0.62 |  |
| SW 900 | 0.512 |  | 0.555 | 0.591 | 0.191 | 0.186 | 0.165 | 0.176 |  |  |  |  |  | 0.579 | 0.547 | 0.724 | 0.511 | 0.412 |  |  |
| SW 1573 |  |  |  |  | 0.235 | 0.279 | 0.181 | 0.243 | 0.723 | 0.885 | 0.609 | 0.546 | 0.404 | 0.179 | 0.147 | 0.191 | 0.129 | 0.143 | 0.327 |  |
